Test results reported in ChEMBL document CHEMBL6092174, “Synthesis and anti-influenza virus activity of substituted dibenzoxepine-based baloxavir derivatives” (Eur J Med Chem, 2024).
pEC50: −log10 of the molar value.

Each molecule was assayed on Influenza A virus (assay: Antiviral activity against Influenza A virus NA-H274Y (A/PR/8/34) infected in dog MDCK cells assessed as reduction in cytopathic effect incubated for 2 days).
Assay type: functional, organism-based

Row | SMILES | pEC50
1 | O=C1c2c(O)c(=O)ccn2N([C@H]2c3ccc(F)cc3COc3ccccc32)[C@@H]2COCCN12 | 8.38
2 | O=C1c2c(O)c(=O)ccn2N([C@@H]2c3ccccc3OCc3c(Cl)cccc32)[C@@H]2COCCN12 | 7.69
3 | O=C1c2c(O)c(=O)ccn2N([C@@H]2c3ccccc3SCc3c2ccc(F)c3F)[C@@H]2COCCN12 [BALOXAVIR] | 8.66
